# Source: patent US20020065317A1, “Calcium salt compositions having improved solubility and method for preparing them” (priority 1998, published 2002)
# Assay: Dissolution time: time required fully to dissolve 1 gram of powder into 100 ml of water
# Assay type: physicochemical
# Conditions: 1 gram into 100 ml of water at 20° C.; only with vigorous stirring
# Method: The dissolution rate of the resulting powder is defined by the dissolution time, viz. the time required fully to dissolve 1 gram thereof into 100 ml of water at 20° C. The dissolution time of the calcium salts compositions of the invention is not more than 60 seconds and preferably not more than 10 seconds. The dissolution time of the powder obtained according to Example 1 is found to be 3.036 sec, while the dissolution time of the untreated calcium gluconate granules is 1.3 minutes, and this only when vigorous stirring is carried out to hasten as much as possible the dissolution. Therefore the powder of Example 1 is an instantly soluble powder, as this expression is to be construed in this, specification.
substance,measurement,value
calcium gluconate,dissolution time,1.3 min
